Reference: PMC12345401, “The mRNA Translation Inhibitor Vioprolide A Prevents Inflammatory Pain‐Like Behaviour With Limited Action on Already Established Pain‐Like Behaviour in Mice” (European Journal of Pain (London, England), 2025)
“Also recorded” adds a separate entry of the source.

How the values were obtained:
C57BL/6N mice [1] = assay: CFA-induced paw inflammation, mechanical hypersensitivity; type: in vivo, mouse
Protocol: (§1) Paw withdrawal latencies following mechanical stimulation were assessed using a dynamic plantar aesthesiometer (Ugo Basile, Gemonio, Italy), which compresses a stainless‐steel probe (0.5‐mm diameter) against the plantar surface of the hindpaw through a wire mesh bottom on which the mice are placed. The applied force was increased from 0 to 5 g over a period of 10 s (0.5 g/s ramp) and then remained constant at 5 g for an additional 10 s (total cutoff time, 20 s). An unequivocal paw withdrawal was evaluated as a response. The paw withdrawal latency was calculated as the average of three to four consecutive exposures with at least 20 s in between. The area under the curve was calculated using Prism 10 (Graph Pad) software.
Paw inflammation was induced by injecting 20 μL of complete Freund's adjuvant (CFA; containing 1 mg/mL heat‐killed Mycobacterium tuberculosis in paraffin oil 85% and mannide monooleate 15%; Sigma‐Aldrich, St. Louis, USA) into the plantar side of a hindpaw (Petersen et al. [2019]). Vioprolide A (0.3, 1 or 3 mg/kg), diclofenac (50 mg/kg; Sigma‐Aldrich, St. Louis, USA), or vehicle (1% DMSO in 0.9% NaCl) was i.p. administered in a volume of 100 μL 24 h after the intraplantar CFA injection. Paw withdrawal latencies following mechanical stimulation were assessed using a dynamic plantar aesthesiometer as described above.

mice = settings: cited from earlier work; for cytokines (interleukin-1β, interleukin-6, tumour necrosis factor) in peritoneal lavage after zymosan-induced peritonitis: Stark et al. [2019]
C57BL/6N mice [2] = test system: C57BL/6N mice; set-up: method as in Metzner et al. [2021]; settings: positive control in a previous study; ref Metzner et al. [2021]; cited from earlier work
rodents = test system: rodents; set-up: method as in earlier work; settings: local treatment, ref Geranton et al. [2009], Jimenez-Diaz et al. [2008], Price et al. [2007]; cited from earlier work
C57BL/6N mice [3] = assay: Zymosan-induced peritonitis, dynamic weight bearing; type: in vivo, mouse; settings: 0.3 mg/kg s.c. into the neck 16 h prior to i.p. zymosan; DWB 5 h after zymosan; vs vehicle
Protocol: Acute peritonitis was induced by a single intraperitoneal (i.p.) injection (0.5 mL) of a zymosan A suspension (2 mg/mL in phosphate‐buffered saline (PBS) without Ca^2+/Mg^2+; Sigma‐Aldrich, Steinheim, Germany and Gibco, Darmstadt, Germany) as described (Stark et al. [2019]). Vioprolide A (0.3 mg/kg; kindly provided by the group of Prof. Rolf Müller, Helmholtz Institute for Pharmaceutical Research Saarland (HIPS), Helmholtz Center for Infection Research and Department of Pharmacy, Saarland University, Saarbrücken, Germany) or vehicle (1% DMSO in 0.9% NaCl) was subcutaneously (s.c.) injected into the neck (to prevent direct interaction with the i.p. applied zymosan) in a volume of 100 μL 16 h prior to the zymosan injection. An automated dynamic weight bearing (DWB) device (Bioseb, Boulogne, France) was used to assess the pain‐like behaviour during zymosan‐induced peritonitis. […] The recorded weight distribution was analysed using the DWB software as described (Laux‐Biehlmann et al. [2016]; Stark et al. [2019]). A zone was considered valid when the following parameters were detected: ≥ 0.8 g on one captor with a minimum of two adjacent captors recording ≥ 1.0 g. A time segment was considered valid if ≥ 3 stable pictures were detected (Laux‐Biehlmann et al. [2016]; Stark et al. [2019]). […]

C57BL/6N mice [4] = assay: Zymosan-induced paw inflammation, mechanical hypersensitivity (dynamic plantar aesthesiometer); type: in vivo, mouse; settings: 0.3, 1 and 3 mg/kg s.c. 16 h prior to intraplantar zymosan; 1-72 h post-zymosan; vs vehicle
Protocol: (§2) Paw inflammation was induced by injecting 20 μL of a zymosan A suspension (5 mg/mL in PBS without Ca^2+/Mg^2+, pH 7.4; Sigma‐Aldrich, St. Louis, USA) into the plantar side of a hindpaw (Petersen et al. [2019]). Vioprolide A (0.3, 1 or 3 mg/kg) or vehicle (1% DMSO in 0.9% NaCl) was s.c. administered into the neck in a volume of 100 μL 16 h prior to the intraplantar zymosan injection.
as §1

C57BL/6N mice [5] = assay: Zymosan-induced paw oedema (plethysmometer); type: in vivo, mouse; settings: 0.3, 1 and 3 mg/kg s.c. 16 h prior to intraplantar zymosan; vs vehicle
Protocol: as §2
The volume of the hindpaw was measured using a plethysmometer (Ugo Basile, Gemonio, Italy) according to the manufacturer's instructions. The dipping solution contained 0.8–0.9 g/L NaCl in distilled water and 2–3 mL/L wetting compound (Ugo Basile, Gemonio, Italy) to reduce drop and meniscus build‐up. The paw volume was calculated as a mean of three measurements. The area under the curve was calculated using Prism 10 (Graph Pad) software.

C57BL/6N mice [6] = assay: Spared nerve injury (SNI)-induced neuropathy, mechanical hypersensitivity; type: in vivo, mouse; settings: 0.3 mg/kg i.p. on Day 14 after SNI; observed over 48 h
Protocol: as §1
The SNI model was performed as described previously (Bourquin et al. [2006]; Petersen et al. [2019]). Briefly, under isoflurane anaesthesia the tibial and common peroneal branches of the sciatic nerve were ligated and dissected distally. The sural nerve remained intact and the mice developed hypersensitivity in the lateral area of the hindpaw. Vioprolide A (0.3 mg/kg) or vehicle (1% DMSO in 0.9% NaCl) were i.p. administered in a volume of 100 μL 14 days after SNI. Paw withdrawal latencies following mechanical stimulation were assessed using a dynamic plantar aesthesiometer as described above.

C57BL/6N mice [7] = assay: Accelerating rotarod test; type: in vivo, mouse; settings: 3 mg/kg s.c. into the neck; naive mice; 20 and 44 h after administration
Protocol: (§3) For the accelerating rotarod test, mice were placed on a rotarod treadmill (Ugo Basile, Gemonio, Italy) at increasing speed (4–40 rpm over 300 s; cutoff time 300 s) and trained for several consecutive days. Only mice that reached 300 s without falling off during the training sessions were included in the experiment. In the vertical pole test, mice were placed with the head pointing upward on a vertical pole and the time needed to reach the ground was recorded (cutoff time 20 s). After baseline measurements, vioprolide A (3 mg/kg) or vehicle (1% DMSO in 0.9% NaCl) was s.c. administered into the neck and the accelerating rotarod test immediately followed by the vertical pole test was performed 20 and 44 h after drug administration. Three trials per mouse were used for evaluation (Balzulat et al. [2024]).

C57BL/6N mice [8] = assay: Vertical pole test; type: in vivo, mouse; settings: 3 mg/kg s.c. into the neck; naive mice; 20 and 44 h after administration
Protocol: as §3

C57BL/6N mice [9] = assay: Von Frey filament test in naive mice; type: in vivo, mouse; settings: 3 mg/kg s.c. into the neck, 22 and 46 h after administration
Protocol: Immediately after the vertical pole test, mice were placed on a wire‐mesh platform in Plexiglas cylinders and habituated for approximately 1 h. Von Frey filaments ranging from 0.04 to 4 g (Ugo Basile, Gemonio, Italy) were applied to the plantar surface of a hind paw for 1 s with a force causing the filament to bend. Starting with the lowest force, each filament was applied 10 times with a break of at least 2 min. The number of paw withdrawal reactions per 10 applications was used to calculate the withdrawal frequency (Beaulieu‐Laroche et al. [2020]). Measurements were performed at baseline and 22 and 46 h after vioprolide A or vehicle administration.

[10] = Pharmacokinetic profile, plasma (LC-MS); type: in vivo; settings: 0.3 mg/kg i.p.
Protocol: (§4) The pharmacokinetic profile of vioprolide A was determined by staff of Pharmacelsus (Saarbrücken, Germany) in male C57BL/6 mice as described (Balzulat et al. [2024]). A single dose of 0.3 mg/kg vioprolide A (in NaCl 0.9% + 1% DMSO) was i.p. administered, and two blood samples were obtained from each animal retrobulbarly under short isoflurane anaesthesia (at 0.25 and 0.5 h from 3 mice; at 1 and 2 h from 3 mice; and at 4 and 8 h from 3 mice). Immediately after the last blood sample was taken, the animal was euthanised by cervical dislocation, and the brain was collected. Plasma and brain concentrations of vioprolide A were determined by LC–MS analysis. The pharmacokinetic analysis was performed applying a non‐compartment model using the Kinetica 5.0 software (Thermo Scientific, Waltham, USA). All given parameters were obtained by trapezoid area calculation.

[11] = Pharmacokinetic profile, brain levels (LC-MS); type: in vivo; settings: 0.3 mg/kg i.p., mouse brain, over 8 h
Protocol: as §4

[12] = male, C57BL/6, ip, mouse plasma

For O=C(O)Cc1ccccc1Nc1c(Cl)cccc1Cl [diclofenac, reference compound], the “CFA-induced mechanical hypersensitivity (paw withdrawal latency)” value (C57BL/6N mice [1]; 50 mg/kg i.p. 24 h after intraplantar CFA, positive control, statistical significance not reached) was “visibly attenuated”.
In the case of COC(=O)C[C@](O)(CCCC(C)(C)O)C(=O)O[C@@H]1C(OC)=C[C@]23CCCN2CCc2cc4c(cc2[C@H]13)OCO4 [homoharringtonine], the “cytokines (interleukin-1β, interleukin-6, tumour necrosis factor) in peritoneal lavage after zymosan-induced peritonitis” value (mice; ref Burgers et al. [2024]) is listed as “reduced the amount of cytokines” and the “pain behaviour during zymosan-induced peritonitis” value (mice; ref Burgers et al. [2024]) is listed as “ameliorated the pain behaviour”.
For O=C1N[C@@H]2C(=C[C@H](O)[C@@H](O)[C@H]2O)c2cc3c(c(O)c21)OCO3 [narciclasine], the “cytokines (interleukin-1β, interleukin-6, tumour necrosis factor) in peritoneal lavage after zymosan-induced peritonitis” value (mice; ref Burgers et al. [2024]) is listed as “reduced the amount of cytokines” and the “visceral pain behaviour in murine peritonitis model” value (mice; ref Stark et al. [2019]) is listed as “significantly inhibited visceral pain behaviour”.
For CC(C)C[C@H](CN)CC(=O)O [pregabalin], the “neuropathic pain behaviour in SNI model” value (C57BL/6N mice [2]) is listed as “attenuated the neuropathic pain behaviour”.
For CO[C@H]1C[C@@H]2CC[C@@H](C)[C@@](O)(O2)C(=O)C(=O)N2CCCC[C@H]2C(=O)O[C@H]([C@H](C)C[C@@H]2CC[C@@H](O)[C@H](OC)C2)CC(=O)[C@H](C)/C=C(\C)[C@@H](O)[C@@H](OC)C(=O)[C@H](C)C[C@H](C)/C=C/C=C/C=C/1C [rapamycin], the persistent pain-like behaviour (rodents) is given as “attenuated persistent pain‐like behaviour”.
With C/C=C1/NC(=O)[C@@H]2CSC(=N2)[C@@H]2C[C@@H](C)N2C(=O)[C@@H](CC(C)C)NC(=O)[C@H](C)NC(=O)[C@@H](O)COC(=O)[C@H](C(C)C)N(C)C(=O)[C@H]([C@@H](C)O)NC(=O)[C@@H]2CCCCN2C1=O [vioprolide A] the “zymosan-induced weight shift towards the frontpaws (visceral nociceptive behaviour)” value (C57BL/6N mice [3]) was “significantly ameliorated; also recorded: significantly lower”, the “zymosan-induced mechanical hypersensitivity (paw withdrawal latency, time course and AUC)” value (C57BL/6N mice [4]) was “significantly ameliorated; also recorded: significantly reduced” and the “zymosan-induced paw edema (paw volume, time course and AUC)” value (C57BL/6N mice [5]) was “decreased in a dose‐dependent manner; also recorded: significantly reduced”. The “CFA-induced mechanical hypersensitivity (paw withdrawal latency)” value (C57BL/6N mice [1]; 0.3, 1 and 3 mg/kg i.p. 24 h after intraplantar CFA, observed over 24 h) was “failed to affect the mechanical hypersensitivity; also recorded: none of the applied doses of vioprolide A affected”, the “SNI-induced mechanical hypersensitivity (paw withdrawal latency)” value (C57BL/6N mice [6]) was “did not affect; also recorded: failed to affect the mechanical hypersensitivity” and the “motor function, time on accelerating rotarod” value (C57BL/6N mice [7]) was “did not affect the time spent on the rotarod; also recorded: did not impair motor function”. For the same compound, the “motor function, vertical pole test” value (C57BL/6N mice [8]) was “did not affect; also recorded: did not impair motor function”, the “mechanical sensitivity, paw withdrawals to von Frey filaments” value (C57BL/6N mice [9]) was “did not alter mechanical sensitivity” and the “%AUCextra (extrapolated part of AUC0-inf)” value ([10]; mouse plasma) was 3.9%. The “t 1/2z (half-life of the terminal slope)” value ([10]; mouse plasma) was 1.0 h, the “t z (time of the last quantifiable sample)” value ([10]; mouse plasma) was 4.0 h and the concentration at 4 h ([10]; male, C57BL/6, intraperitoneal, mouse plasma, read-out: C z (last analytically quantifiable concentration)) was 0.1 ng/mL. It also gave an AUC(0-t) [10, 12] of 3.6 ng·h/mL, a Cmax [10, 12] of 7.8 ng/mL and a Tmax [10, 12] of 0.25 h. The AUC(0-inf) ([10]; male, C57BL/6, ip, mouse plasma, extrapolated to infinity) was 3.8 ng·h/mL, the CL/F ([10]; male, C57BL/6, ip, mouse plasma, read-out: CL/f (total body clearance after extravascular administration) (converted)) was 1330 mL/min/kg and the Vd/F ([10]; male, C57BL/6, ip, mouse plasma, read-out: V z/f (volume of distribution after extravascular administration)) was 116 L/kg. For the same compound, the half-life ([10]; male, C57BL/6, mouse, plasma, ip, 0.3 mg/kg, read-out: t 1/2z (half-life of the terminal slope) (converted)) was about 1 h and the brain level [11] was “not detected in the brain”.
